Source: patent US20230391783A1, “COMPOUND CONTAINING 2,4-THIAZOLE RING, PREPARATION METHOD THEREFOR, AND APPLICATION THEREOF” (SHANDONG UNIVERSITY, priority 2021, published 2023)

System: lymphocytes (fresh spleen cells)
Test: Lymphocyte proliferation assay (ConA-induced spleen cells)
Assay type: cell-based, rat
Conditions: 48 hours; for Inhibition rate (%): lymphocyte proliferation induced with 5 μg/mL ConA, test concentration not given; for IC50: Rattus norvegicus, inhibition of lymphocyte proliferation, 5 μg/mL ConA
Protocol: Lymphocytotoxicity test: rats were euthanized by spinal dislocation method, their spleens were aseptically removed and ground to make a single cell suspension. After removing red blood cells with 2 mL of red blood cell lysis buffer, the cell concentration was adjusted to 2×10^6 cells/mL using RPMI-1640 medium containing 10% fetal bovine serum (FBS). Next, 100 μL of the 2×10^6 cells/mL cell suspension and 100 μL of the appropriate concentration of the tested compound were added to each well of a 96-well plate, and the plate was incubated at 37° C. with 5% CO2 for 48 hours. At the end of the incubation period, 10 μL of CCK8 was added to each well, and the plate was returned to the incubator for 5-7 hours. The OD450 value was then measured at 450 nm using an enzyme-linked immunosorbent assay reader.
Lymphocyte proliferation assay: fresh spleen cells at a concentration of 2×10^6 cells/mL were incubated for 48 hours in an incubator maintained at 37° C. and 5% CO2 for 48 hours, and the culture medium was induced for cell proliferation with 5 μg/mL of ConA, and the appropriate concentration of the tested compound was added to test its inhibitory activity on lymphocyte proliferation. The test results of some compounds are shown in the table below and figures accompanying the application: […]

Compound | Inhibition rate (%) | IC50
COC(=O)C1CCCCN1C(=O)c1csc(-c2cnn3cccnc23)n1 (stereo not shown) [IA-16] | 28.83% | 
CC(C)=CCC/C(C)=C/COC(=O)c1csc(-c2cnn3cccnc23)n1 [IA-7] | 52.55% | 487 ± 18.3 nM
O=C(NCc1ccc(F)cc1F)c1csc(C(=O)c2c[nH]c3ccccc23)n1 [IIA-14] | 37.99% | 
O=C(NCc1ccccc1)c1csc(C(=O)c2c[nH]c3ccccc23)n1 [IIA-19] | 46.55% | 
CC(C)=CCC/C(C)=C/CNC(=O)c1csc(C(=O)c2c[nH]c3ccccc23)n1 [IIA-30] | 26.88% | 
COC(=O)C(CO)NC(=O)c1csc(C(=O)c2c[nH]c3ccccc23)n1 (stereo not shown) [IIA-13] | 43.99% | 
O=C(Nc1cccnc1)c1csc(C(=O)c2c[nH]c3ccccc23)n1 [IIA-17] | 59.31% | 
O=C(NCCc1cccnc1)c1csc(-c2cnn3cccnc23)n1 [IA-12] | 83.63% | 236 ± 17.2 nM
Cc1cnc2c(-c3nc(C(=O)NCCc4ccccn4)cs3)cnn2c1 [IA-25] | 37.24% | 
O=C(NCCC(F)(F)F)c1csc(C(=O)c2c[nH]c3ccccc23)n1 [IIA-29] | 43.54% | 
O=C(NCc1cccnc1)c1csc(NC(=O)c2cnn3cccnc23)n1 [IA-2] | 65.17% | 439 ± 24.2 nM
O=C(c1nc(C(=O)N2C[C@H](O)C[C@H]2C(=O)O)cs1)c1c[nH]c2ccccc12 [IIA-23] | 58.56% | 439 ± 25.3 nM
C=CC[C@@H]1/C=C(\C)C[C@H](C)C[C@H](OC)[C@H]2O[C@@](O)(C(=O)C(=O)N3CCCC[C@H]3C(=O)O[C@H](/C(C)=C/[C@@H]3CC[C@@H](O)[C@H](OC)C3)[C@H](C)[C@@H](O)CC1=O)[C@H](C)C[C@@H]2OC [Tacrolimus, reference compound] | 57.54% | 504 ± 16.2 nM
CC(C)CCCC(C)C1CCC2C3CC=C4CC(OC(=O)c5csc(C(=O)c6c[nH]c7ccccc67)n5)CCC4(C)C3CCC12C (stereo not shown) [IIA-8] | 50.45% | 
O=C(c1csc(-c2cnn3cccnc23)n1)N1CCC[C@H]1c1ccccc1 [IA-9] | 58.26% | 399 ± 15.2 nM
CC1CCC2(OC1)OC1CC3C4CC=C5CC(NC(=O)c6csc(C(=O)c7c[nH]c8ccccc78)n6)CCC5(C)C4CCC3(C)C1C2C (stereo not shown) [IIA-10] | 23.57% | 
O=C(c1nc(C(=O)N2CCC[C@H]2c2ccncc2)cs1)c1c[nH]c2ccccc12 [IIA-21] | 54.35% | 
O=C(c1nc(C(=O)N2CCCC2c2cc(F)ncc2F)cs1)c1c[nH]c2ccccc12 (stereo not shown) [IIA-28] | 54.05% | 
O=C(NCc1cncnc1)c1csc(-c2cnn3cccnc23)n1 [IA-22] | 32.73% | 
O=C(NCc1ccc(Cl)cc1Cl)c1csc(-c2cnn3cccnc23)n1 [IA-8] | 43.39% | 

Compound | Inhibition rate (%) | IC50
O=C(NCCc1ccncc1)c1csc(C(=O)c2c[nH]c3ccccc23)n1 [IIA-20] | 42.64% | 
CC(C)=CCOC(=O)c1csc(C(=O)c2c[nH]c3ccccc23)n1 [IIA-4] | 48.95% | 
O=C(OCc1cn(CCCCCCO)nn1)c1csc(C(=O)c2c[nH]c3ccccc23)n1 [IIB-4] | 21.17% | 
O=C(c1csc(-c2cnn3cccnc23)n1)N1CCC[C@H]1c1cccnc1 [IA-1] | 81.38% | 210 ± 8.87 nM
O=C(NCCc1ccccn1)c1csc(-c2cnn3cccnc23)n1 [IA-21] | 44.14% | 488 ± 22 nM
O=C(NC1CCC(C(F)(F)F)CC1)c1csc(-c2cnn3cccnc23)n1 (stereo not shown) [IA-20] | 42.49% | 
O=C(OCc1cn(CCCCCCBr)nn1)c1csc(C(=O)c2c[nH]c3ccccc23)n1 [IIB-3] | 39.79% | 468 ± 20.1 nM
COC(=O)C1CCCCN1C(=O)c1csc(C(=O)c2c[nH]c3ccccc23)n1 (stereo not shown) [IIA-25] | 49.85% | 
CC(C)=CCC/C(C)=C/CC/C(C)=C/COC(=O)c1csc(C(=O)c2c[nH]c3ccccc23)n1 [IIA-2] | 25.83% | 
Nc1ccccc1C(=O)CC(N)C(=O)O (stereo not shown) [KYN, kynurenine, reference compound] | 51.65% | 
O=C(c1nc(C(=O)N2CCC[C@H]2c2cccnc2)cs1)c1c[nH]c2ccccc12 [IIA-1] | 65.32% | 
O=C(OCc1cn(CC23CC4CC(CC(C4)C2)C3)nn1)c1csc(C(=O)c2c[nH]c3ccccc23)n1 [IIB-5] | 59.01% | 
O=C(Nc1cccnc1)c1csc(-c2cnn3cccnc23)n1 [IA-10] | 59.61% | 421 ± 21.1 nM
CC1CCC2(OC1)OC1CC3C4CC=C5CC(OC(=O)c6csc(C(=O)c7c[nH]c8ccccc78)n6)CCC5(C)C4CCC3(C)C1C2C (stereo not shown) [IIA-7] | 38.74% | 
O=C(NCCCN1CCCC1)c1csc(C(=O)c2c[nH]c3ccccc23)n1 [IIA-15] | 28.53% | 
C#COC(=O)c1csc(C(=O)c2c[nH]c3ccccc23)n1 [IIA-3] | 47.15% | 
O=C(NCC(O)C(F)(F)F)c1csc(-c2cnn3cccnc23)n1 (stereo not shown) [IA-19] | 41.89% | 
O=C(NCc1cccnc1)c1csc(C(=O)c2c[nH]c3ccccc23)n1 [IIA-6] | 56.46% | 479 ± 14.2 nM
O=C(NCc1ccccc1)c1csc(-c2cnn3cccnc23)n1 [IA-11] | 70.42% | 263 ± 13.4 nM
O=C(NCc1ccc(F)cc1F)c1csc(-c2cnn3ccccc23)n1 [IA-5] | 47.15% | 

Compound | Inhibition rate (%) | IC50
O=C(Nc1ccccc1)c1csc(-c2cnn3cccnc23)n1 [IA-6] | 40.69% | 
O=C(c1csc(-c2cnn3cccnc23)n1)N1CCN(c2cccnc2)CC1 [IA-23] | 60.57% | 350 ± 17 nM
O=C(c1nc(C(=O)N2CCC[C@H]2c2ccccc2)cs1)c1c[nH]c2ccccc12 [IIA-18] | 50.6% | 
CC(=O)NCCNC(=O)c1csc(C(=O)c2c[nH]c3ccccc23)n1 [IIA-12] | 27.93% | 
O=C(c1nc(C(=O)N2CCCCC2C(=O)O)cs1)c1c[nH]c2ccccc12 (stereo not shown) [IIA-22] | 53.75% | 479 ± 9.88 nM
COC(=O)[C@@H]1C[C@@H](O)CN1C(=O)c1csc(C(=O)c2c[nH]c3ccccc23)n1 [IIA-26] | 45.05% | 
COC(=O)[C@@H]1C[C@@H](O)CN1C(=O)c1csc(-c2cnn3cccnc23)n1 [IA-15] | 30.78% | 
O=C(NC(CO)C(=O)O)c1csc(C(=O)c2c[nH]c3ccccc23)n1 (stereo not shown) [IIA-24] | 59.91% | 421 ± 19.9 nM
O=C(NCC(F)(F)F)c1csc(C(=O)c2c[nH]c3ccccc23)n1 [IIA-27] | 51.8% | 
CC(C)=CCC/C(C)=C/COC(=O)c1csc(C(=O)c2c[nH]c3ccccc23)n1 [IIA-5] | 57.51% | 
COC(=O)c1csc(C(=O)c2c[nH]c3ccccc23)n1 [ITE, reference compound] | 57.96% | 
O=C(NCCC(F)(F)F)c1csc(-c2cnn3cccnc23)n1 [IA-18] | 43.09% | 
O=C(c1csc(-c2cnn3cccnc23)n1)N1CCC[C@H]1c1cc(F)ccc1F [IA-17] | 46.55% | 436 ± 33.4 nM
O=C(OCc1cn(Cc2ccc3ccccc3c2)nn1)c1csc(C(=O)c2c[nH]c3ccccc23)n1 [IIB-2] | 49.4% | 
CCC(CCC(C)C1CCC2C3CC=C4CC(OC(=O)c5csc(C(=O)c6c[nH]c7ccccc67)n5)CCC4(C)C3CCC12C)C(C)C (stereo not shown) [IIA-9] | 48.2% | 
CC(C)=CCC/C(C)=C/CNC(=O)c1csc(-c2cnn3cccnc23)n1 [IA-24] | 55.71% | 457 ± 30.6 nM
O=C(OCc1cn(CCc2ccccc2)nn1)c1csc(C(=O)c2c[nH]c3ccccc23)n1 [IIB-1] | 45.65% | 
Cc1c(COC(=O)c2csc(C(=O)c3c[nH]c4ccccc34)n2)cccc1-c1ccccc1 [IIA-11] | 25.08% | 
O=C(c1csc(-c2cnn3cccnc23)n1)N1CCC[C@H]1c1ccncc1 [IA-13] | 59.01% | 410 ± 33.5 nM
CC(C)=CCOC(=O)c1csc(-c2cnn3cccnc23)n1 [IA-4] | 28.23% | 438 ± 12.3 nM
